From ChEMBL document CHEMBL2311364, “Novel peptidomimetics as BACE-1 inhibitors: synthesis, molecular modeling, and biological studies” (Bioorg Med Chem Lett, 2013)
Activity calls are given as the source filed them. No cut-off for these calls is given here.

Legend:
Beta-secretase 1 [1] = molecular target: T1, Beta-secretase 1 (Homo sapiens, UniProt P56817); assay: Inhibition of human recombinant BACE-1 using acetyl-C(W8044-Eu)-EVNLDAEFK-QSY7 as substrate by TR-FRET assay
Beta-secretase 1 [2] = molecular target: T1, Beta-secretase 1; assay: Inhibition of BACE1 in human SHSY5Y cells expressing APP NFEV and wild-type alpha-cleavage site; assay type: cell-based, SH-SY5Y
Beta-secretase 1 [3] = molecular target: T1, Beta-secretase 1; assay: Inhibition of BACE1 in HEK293 cells expressing modified BACE cleavage sequence of APP, NFEV and K612V mutation; assay type: cell-based
Beta-secretase 1 [4] = molecular target: T1, Beta-secretase 1; assay: Inhibition of human recombinant BACE-1 using acetyl-C(W8044-Eu)-EVNLDAEFK-QSY7 as substrate at 100 uM by TR-FRET assay

T1 sequence (P56817 whole entry): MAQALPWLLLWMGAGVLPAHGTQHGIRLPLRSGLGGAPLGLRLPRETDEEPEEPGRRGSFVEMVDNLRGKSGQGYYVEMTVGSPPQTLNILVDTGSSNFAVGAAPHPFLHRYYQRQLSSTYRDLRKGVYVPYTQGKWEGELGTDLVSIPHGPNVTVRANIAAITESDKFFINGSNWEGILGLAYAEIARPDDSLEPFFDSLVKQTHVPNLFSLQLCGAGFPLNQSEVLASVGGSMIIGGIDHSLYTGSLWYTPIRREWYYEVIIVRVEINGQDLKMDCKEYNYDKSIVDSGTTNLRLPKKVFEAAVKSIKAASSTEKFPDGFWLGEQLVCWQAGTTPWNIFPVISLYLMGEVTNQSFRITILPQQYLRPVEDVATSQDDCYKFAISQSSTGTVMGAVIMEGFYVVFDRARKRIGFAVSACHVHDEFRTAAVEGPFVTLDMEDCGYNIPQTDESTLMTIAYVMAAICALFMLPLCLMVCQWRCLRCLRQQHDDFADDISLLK

| IC50 (Beta-secretase 1 [1]) | IC50 (Beta-secretase 1 [2]) | IC50 (Beta-secretase 1 [3]) | Structure (SMILES) | inhibition (Beta-secretase 1 [4]) |
| --- | --- | --- | --- | --- |
| 2.4 µM | > 1.2 µM | > 2.6 µM | O=C(N[C@H](C(=O)Nc1cc(C(O)CNCc2ccccc2)ccc1C(=O)c1ccccc1)c1ccccc1)OCc1ccccc1 (stereo partly drawn) | – |
| 4.2 µM | – | – | O=C(N[C@@H](C(=O)Nc1cc(C(CO)NCc2ccccc2)ccc1C(=O)c1ccccc1)c1ccccc1)OCc1ccccc1 (stereo partly drawn) | – |
| – | – | – | CC(C)(C)OC(=O)N1CCN(c2cccc3c2NC(=O)[C@H](Cc2ccccc2)N=C3c2ccccc2)CC1 | inactive |
| – | – | – | CC(C)(C)OC(=O)N1CCN(CC(O)c2ccc3c(c2)NC(=O)[C@@H](c2ccccc2)N=C3c2ccccc2)CC1 (stereo partly drawn) | inactive |
| – | – | – | CC(C)(C)OC(=O)N1CCN(c2cccc(C(=O)c3ccccc3)c2NC(=O)[C@@H](NC(=O)OCc2ccccc2)c2ccccc2)CC1 | inactive |
| – | – | – | CC(C)(C)OC(=O)N1CCN(c2cccc3c2NC(=O)[C@H](CCc2ccccc2)N=C3c2ccccc2)CC1 | inactive |
| 4.9 µM | – | – | CC(C)(C)OC(=O)N1CCN(CC(O)c2ccc(C(=O)c3ccccc3)c(NC(=O)[C@H](NC(=O)OCc3ccccc3)c3ccccc3)c2)CC1 (stereo partly drawn) | – |
| – | – | – | O=C1Nc2cc(C(O)CNCc3ccccc3)ccc2C(c2ccccc2)=N[C@@H]1c1ccccc1 (stereo partly drawn) | inactive |
| 4.1 µM | > 1.2 µM | > 2.6 µM | O=C(N[C@H](C(=O)Nc1cc(C(CO)NCc2ccccc2)ccc1C(=O)c1ccccc1)c1ccccc1)OCc1ccccc1 (stereo partly drawn) | – |
| 2.6 µM | > 1.2 µM | > 2.6 µM | O=C(N[C@@H](C(=O)Nc1cc(C(O)CNCc2ccccc2)ccc1C(=O)c1ccccc1)c1ccccc1)OCc1ccccc1 (stereo partly drawn) | – |
| – | – | – | O=C1Nc2c(cccc2N2CCNCC2)C(c2ccccc2)=N[C@H]1c1ccccc1 | inactive |

| Structure (SMILES) | IC50 (Beta-secretase 1 [1]) | IC50 (Beta-secretase 1 [2]) | IC50 (Beta-secretase 1 [3]) | inhibition (Beta-secretase 1 [4]) |
| --- | --- | --- | --- | --- |
| O=C1Nc2cc(C(CO)NCc3ccccc3)ccc2C(c2ccccc2)=N[C@@H]1c1ccccc1 (stereo partly drawn) | 10.9 µM | – | – | – |
| CC(C)(C)OC(=O)N1CCN(c2cccc3c2NC(=O)[C@H](c2ccccc2)N=C3c2ccccc2)CC1 | 35 µM | – | – | – |
| O=C1Nc2ccccc2C(c2ccccc2)=N[C@H]1C(O)CN1CCNCC1 (stereo partly drawn) | 12.5 µM | – | – | – |
| CC(C)(C)OC(=O)N1CCN(c2cccc3c2NC(=O)[C@@H](c2ccccc2)N=C3c2ccccc2)CC1 | 43 µM | – | – | – |
| O=C1Nc2cc(C(CO)NCc3ccccc3)ccc2C(c2ccccc2)=N[C@H]1c1ccccc1 (stereo partly drawn) | – | > 11 µM | > 22 µM | – |
